Measurements: paper PMC13360702, “An Agonist/Antagonist Photo‐Switchable Vitamin D Mimetic Enables Bidirectional Optical Control of VDR” (Angewandte Chemie (International Ed. in English), 2026)

Target: T1, VDR (Homo sapiens, UniProt P11473)
T1 construct: -CMV-VDR-LBD coding for the hinge region and; expressed in transfected cells; host or cells: HEK293T
T1 sequence (P11473 127-423 limits assumed): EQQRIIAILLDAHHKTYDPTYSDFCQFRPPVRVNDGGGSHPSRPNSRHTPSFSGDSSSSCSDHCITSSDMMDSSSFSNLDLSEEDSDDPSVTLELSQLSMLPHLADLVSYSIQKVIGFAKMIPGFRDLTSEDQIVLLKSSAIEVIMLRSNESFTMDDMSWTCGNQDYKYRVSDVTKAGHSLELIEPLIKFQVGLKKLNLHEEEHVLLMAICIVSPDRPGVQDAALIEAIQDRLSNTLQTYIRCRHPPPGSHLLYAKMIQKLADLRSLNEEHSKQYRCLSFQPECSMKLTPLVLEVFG
Assay: fluorescent (mCherry) reporter gene assay, in‐cell VDR activation over time
Assay type: cell-based
Settings: 1 µM
Experimental: To evaluate the potential of 10 for in‐cell control of VDR activity, we determined its light‐dependent effect over time (Figure 3a) using VDR‐induced expression of the fluorescent protein mCherry as reporter for non‐invasive monitoring. Under illumination with a Cell‐Disco [24]
FIGURE 3 Optical control of VDR activity with photo‐vitD (10). (a) 10 (1 µM) enabled light‐dependent in‐cell activation of VDR in a fluorescent (mCherry) reporter gene assay. Gray curve: dark; blue curve: Cell‐Disco (370 nm; 100 ms/10 s); yellow curve: dark for 10 h, then Cell‐Disco (370 nm); magenta curve: Cell‐Disco (370 nm) for 10 h, then Cell‐Disco (450 nm). Lines are the mean, shadows are S.E.M.; n = 6. (b–d) Phenotypic model of bone formation using human […] (ASC52telo hTERT cells) and cyclic treatment with dexamethasone, 2‐phospho‐L‐ascorbic acid, and glycerol 2‐phosphate over 15 days to induce osteogenesis. Alkaline phosphatase (ALP) activity (b) and von Kossa staining of hydroxyapatite (c; representative photomicrographs in d) were used as markers of osteogenesis. Experiments were performed in the dark (gray bars) and using a Cell‐Disco (370 nm, 100 ms/10 s; blue bars). Data are the mean±SD, n = 6. * p<0.05, ** p<0.01, *** p<0.001 (vs. respective dark or illuminated DMSO (diff.) ctrl or as indicated; ANOVA with Dunnett's multiple comparisons test).
Gal4-hybrid reporter gene assays. […] After 14−16 h incubation, luciferase activity was measured using the Dual -Glo Luciferase Assay System (Promega) according to the manufacturer’s protocol on a Tecan Spark luminometer (Tecan Deutschland GmbH, Crailsheim, Germany). […] EC 50 and IC50 values were calculated by fitting dose−response data with the equation “[agonist] vs response − variable slope (four parameters)” or “[inhibitor] vs response − variable slope (four parameters)” in GraphPad Prism (version 7, GraphPad software, La Jolla, CA, USA). […]
Fluorescent Reporter Gene Assay. The fluorescence reporter gene assay was performed in HEK293T […]

## CCCc1cc(C(O)(CC)CC)ccc1-c1ccc(/N=N/c2ccc3cc(C(=O)O)ccc3c2)cc1C [compound 10]
Cell‐Disco 370 nm for 10 h, then switched back to (E)‐state with 450 nm light
  VDR‐induced mCherry fluorescence over time: the increase in mCherry fluorescence ceased
Cell‐Disco 370 nm, 100 ms/10 s ((Z)‐state)
  VDR‐induced mCherry fluorescence over time: mCherry fluorescence constantly increased
Without illumination (dark)
  VDR‐induced mCherry fluorescence over time: no increase in fluorescence
